Test system: inducible human Hsp70
Assay: Hsp70 RNA induction by quantitative PCR analysis in Ramos B cells
Assay type: cell-based
Details: 500 nM compound, 6 hours, Hsp70 RNA relative to gapdh; for % induction relative to Compound X: Compound X set to 100%; for fold induction at 0.5 µM: Homo sapiens, read-out: fold induction over DMSO
Method: The ability of the compounds of the invention to induce Hsp70 RNA induction by quantitative PCR analysis was examined. Ramos B cells were treated with 500 nM each compound for 6 hours and the RNA was isolated from the cells. Quantitative PCR was performed as described below:
Details for Quantitative PCR are as follows:
500 ng of RNA from each sample was used for cDNA synthesis using iScript cDNA Synthesis Kit (Biorad, Cat#170-8891). 1 ul of cDNA mixture was used with the iQ SYBR Green Supermix (Biorad, Cat#170-8882) to perform quantitative PCR in an iCycler machine (Biorad) using standard protocols. QPCR for each sample/time point was performed in duplicate. The following primers for inducible human Hsp70 and gapdh were used: […]
Ct values were obtained from the iCycler program and used in an equation (2^−ΔΔCT) for determining the amount of target relative to gapdh expression. This compares the relative expression of Hsp70 to the corresponding levels of gapdh in each sample. Duplicate wells were averaged. The amount of N-Malonyl-bis(N′-methyl-N′ thiobenzoylhydrazide) (Compound X) induction of Hsp70 was set to 100% and the percent of induction of Hsp70 by the compounds of the invention was determined relative to 100%.

| SMILES | % induction relative to Compound X [%] | fold induction at 0.5 µM |
| --- | --- | --- |
| CN(NC(=O)CC(=O)NN(C)C(=S)Nc1ccccc1)C(=S)Nc1ccccc1 [Compound 67] | 0.09 | 0.22 |
| CN(NC(=O)CC(=O)NN(C)C(=S)NC1CC1)C(=S)NC1CC1 [Compound 69] | 0.12 | 0.3 |
| COC(=S)N(C)NC(=O)CC(=O)NN(C)C(=S)OC [Compound 70] | 0.57 | 1.41 |
| CN(NC(=O)CC(=O)NN(C)c1nccs1)c1nccs1 [Compound 71] | 0.33 | 0.87 |
| CN(NC(=O)c1cc(=O)cc(C(=O)NN(C)C(=S)c2ccccc2)o1)C(=S)c1ccccc1 [Compound 74, N′2,N′6-dimethyl-4-oxo-N′2,N′6-di(phenylcarbonothioyl)-4H-pyran-2,6-dicarbohydrazide] | 0.22 | 0.59 |
